Assay results as given in US10329289B2, “6,7-dihydro-5H-pyrrolo[3,4-B]pyridin-5-one allosteric modulators of the M4 muscarinic acetylcholine receptor” (Merck Sharp & Dohme Corp., priority 2015, dated 2019).

Each compound was assayed against T1, human M4 muscarinic acetylcholine receptor (Homo sapiens, UniProt P08173) (assay: human FLIPR-based M4 PAM assay (Ca2+ mobilization, CHO-K1 cells with human M4 receptor and Gαqi5)). Settings: acetylcholine at 20% of maximum response, read-out: M4 PAM IP.
T1 construct: expressed in transfected cells; host or cells: CHO-K1
T1 sequence (P08173 1-479): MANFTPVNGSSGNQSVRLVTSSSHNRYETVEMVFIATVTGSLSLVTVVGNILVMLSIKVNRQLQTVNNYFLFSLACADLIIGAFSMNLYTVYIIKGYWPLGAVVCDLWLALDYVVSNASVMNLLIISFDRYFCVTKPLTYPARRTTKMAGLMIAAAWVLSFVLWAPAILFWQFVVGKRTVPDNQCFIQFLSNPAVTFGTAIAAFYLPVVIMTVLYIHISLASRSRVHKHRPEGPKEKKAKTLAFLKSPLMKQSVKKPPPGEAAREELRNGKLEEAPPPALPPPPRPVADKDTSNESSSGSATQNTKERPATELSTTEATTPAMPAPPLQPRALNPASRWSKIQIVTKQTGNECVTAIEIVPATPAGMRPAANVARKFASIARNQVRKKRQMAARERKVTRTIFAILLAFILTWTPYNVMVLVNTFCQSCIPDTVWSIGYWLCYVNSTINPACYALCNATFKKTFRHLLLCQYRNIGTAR
Assay type: cell-based
How it was run: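 CHO-K1 cells stably expressing human M4 and chimeric Gαqi5 were dye-loaded ~1 h at 37 °C and read for Ca2+ fluorescence. Compound followed by acetylcholine at an EC20 (sometimes an EC70 third addition); inflection point from a 4-parameter logistic fit.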

Row | SMILES | EC50 [nM]
1 | COc1ccc(OC2CCN(c3nc4c(cc3C)C(=O)NC4=O)CC2)cn1 [Example 297, 2-(4-((6-Methoxypyridin-3-yl)oxy)piperidin-1-yl)-3-methyl-5H-pyrrolo[3,4-b]pyridine-5,7(6H)-dione] | 22
2 | Cc1cc2c(nc1N1CCC(Oc3ccc4[nH]nc(Cl)c4c3)CC1)CNC2=O [Example 313, 2-(4-((3-Chloro-1H-indazol-5-yl)ox)piperidin-1-yl)-3-methyl-6,7-dihydro-5H-pyrrolo[3,4-b]pyridin-5-one] | 30
3 | Cc1c(N2CCC(Oc3ccc(F)cc3)CC2)nc2c(c1C)C(=O)N(CCO)C2 [Example 266, 2-(4-(4-fluorophenoxy)piperidin-1-yl)-6-(2-hydroxyethyl)-3,4-dimethyl-6,7-dihydro-5H-pyrrolo[3,4-b]pyridin-5-one] | 105
4 | Cc1cc2c(nc1N1CCC(OCc3ccncc3)CC1)CNC2=O [Example 175A, 3-methyl-2-(4-(pyridin-4-ylmethoxy)piperidin-1-yl)-6,7-dihydro-5H-pyrrolo[3,4-b]pyridin-5-one] | 3100
5 | Cc1c(N2CC[C@@H](OCC3(C)CC3)[C@@H](F)C2)nc2c(c1C)C(=O)N(C)[C@@H]2CO [Example 341A, (S)-2-((3S,4R)-3-fluoro-4-((1-methylcyclopropyl)methoxy)piperidin-1-yl)-7-(hydroxymethyl)-3,4,6-trimethyl-6,7-dihydro-5H-pyrrolo[3,4-b]pyridin-5-one] | 9
6 | Cc1cc2c(nc1N1CCC(Oc3ccc4c(c3)c(C)nn4C)CC1)CNC2=O [Example 129, 2-(4-((1,3-dimethyl-1H-indazol-5-yl)oxy)piperidin-1-yl)-3-methyl-6,7-dihydro-5H-pyrrolo[3,4-b]pyridin-5-one] | 1090
7 | Cc1cc2c(nc1N1CCC(Oc3ccc([C@@H](C)O)cc3)CC1)CNC2=O (single isomer, unassigned) [Example 150A] | 124
8 | Cc1cc2c(nc1N1CCC(OCC3CCCCC3)CC1)CNC2=O [Example 191, 2-(4-(cyclohexylmethoxy)piperidin-1-yl)-3-methyl-6,7-dihydro-5H-pyrrolo[3,4-b]pyridin-5-one] | 492
9 | CCOc1ccc(OC2CCN(c3nc4c(cc3C)C(=O)N[C@@H]4CCO)CC2)cn1 (single isomer, unassigned) [Example 234B] | 78
10 | Cc1cc2c(nc1N1CCC(Oc3ccc4c(c3)CCC(C)(C)O4)CC1)CNC2=O [Example 127, 2-(4-((2,2-dimethylchroman-6-yl)oxy)piperidin-1-yl)-3-methyl-6,7-dihydro-5H-pyrrolo[3,4-b]pyridin-5-one] | 480
11 | Cc1cc2c(nc1N1CCC(Oc3ccc(N(C)C)nc3)CC1)CNC2=O [Example 106, 2-(4-((6-(dimethylamino)pyridin-3-yl)oxy)piperidin-1-yl)-3-methyl-6,7-dihydro-5H-pyrrolo[3,4-b]pyridin-5-one] | 298
12 | CCc1cc2c(nc1N1CCC(Oc3ccc4c(c3)OCC4)CC1)[C@H](CO)N(C)C2=O [Example 366, (R)-2-(4-((2,3-dihydrobenzofuran-6-yl)oxy)piperidin-1-yl)-3-ethyl-7-(hydroxymethyl)-6-methyl-6,7-dihydro-5H-pyrrolo[3,4-b]pyridin-5-one] | 1240
13 | Cc1c(N2CC[C@@H](OCC3(C)CC3)[C@@H](F)C2)nc2c(c1C)C(=O)NC2 [Example 161A, 2-((3S,4R)-3-Fluoro-4-((1-methylcyclopropyl)methoxy)piperidin-1-yl)-3,4-dimethyl-6,7-dihydro-5H-pyrrolo[3,4-b]pyridin-5-one] | 21
14 | Cc1cc2c(nc1N1CCC(Oc3ccc4c(c3)COCC4)CC1)[C@H](CO)N(C)C2=O [Example 350, (R)-7-(hydroxymethyl)-2-(4-(isochroman-7-yloxy)piperidin-1-yl)-3,6-dimethyl-6,7-dihydro-5H-pyrrolo[3,4-b]pyridin-5-one] | 980
15 | Cc1cc2c(nc1N1CCC(Oc3ccc4c(c3)NCCO4)CC1)CNC2=O [Example 107, 2-(4-((3,4-dihydro-2H-benzo[b][1,4]oxazin-6-yl)oxy)piperidin-1-yl)-3-methyl-6,7-dihydro-5H-pyrrolo[3,4-b]pyridin-5-one] | 87
16 | Cc1cc2c(nc1N1CCC(OCc3ccccc3)CC1)CNC2=O [Example 63, 2-(4-(benzyloxy)piperidin-1-yl)-3-methyl-6,7-dihydro-5H-pyrrolo[3,4-b]pyridin-5-one] | 145
17 | Cc1c(N2CCC(Oc3ccc(F)cc3)CC2)nc2c(c1C)C(=O)N(C)[C@@H]2CO [Example 353, (S)-2-(4-(4-fluorophenoxy)piperidin-1-yl)-7-(hydroxymethyl)-3,4,6-trimethyl-6,7-dihydro-5H-pyrrolo[3,4-b]pyridin-5-one] | 30

Row | SMILES | EC50 [nM]
18 | Cc1cc2c(nc1N1CCC(Oc3ccc4c(c3)CCC4)CC1)CNC2=O [Example 44, 2-(4-((2,3-dihydro-1H-inden-5-yl)oxy)piperidin-1-yl)-3-methyl-6,7-dihydro-5H-pyrrolo[3,4-b]pyridin-5-one] | 130
19 | Cc1c(N2CCC(OCC3CCC3)CC2)nc2c(c1C)C(=O)N(CCO)C2 [Example 267B, 2-(4-(cyclobutylmethoxy)piperidin-1-yl)-6-(2-hydroxyethyl)-3,4-dimethyl-6,7-dihydro-5H-pyrrolo[3,4-b]pyridin-5-one] | 80
20 | Cc1cc2c(nc1N1CCC(OCC3(C)CC3)CC1)[C@H](CO)N(C)C2=O [Example 340, (R)-7-(hydroxymethyl)-3,6-dimethyl-2-(4-((1-methylcyclopropyl)methoxy)piperidin-1-yl)-6,7-dihydro-5H-pyrrolo[3,4-b]pyridin-5-one] | 2980
21 | Cc1cc2c(nc1N1CCC(Oc3ccc4c(cnn4C)c3)CC1)[C@H](CO)N(C)C2=O [Example 360, (R)-7-(hydroxymethyl)-3,6-dimethyl-2-(4-((1-methyl-1H-indazol-5-yl)oxy)piperidin-1-yl)-6,7-dihydro-5H-pyrrolo[3,4-b]pyridin-5-one] | 1680
22 | Cc1cc2c(nc1N1CCC(Oc3ccc4c(c3)OCC(=O)N4)CC1)CNC2=O [Example 133, 7-((1-(3-methyl-5-oxo-6,7-dihydro-5H-pyrrolo[3,4-b]pyridin-2-yl)piperidin-4-yl)oxy)-2H-benzo[b][1,4]oxazin-3(4H)-one] | 611
23 | COC(=O)c1c(C)c(N2CCC(Oc3ccc4c(c3)COC4)CC2)nc2c1C(=O)NC2 [Example 212, methyl 2-(4-((1,3-dihydro-2-benzofuran-5-yl)oxy)piperidin-1-yl)-3-methyl-5-oxo-6,7-dihydro-5H-pyrrolo[3,4-b]pyridine-4-carboxylate] | 1830
24 | O=C1NCc2nc(N3CCC(Oc4ccc5c(c4)COC5)CC3)c(Br)cc21 [Example 226, 3-bromo-2-(4-((1,3-dihydro-2-benzofuran-5-yl)oxy)piperidin-1-yl)-6,7-dihydro-5H-pyrrolo[3,4-b]pyridin-5-one] | 136
25 | COc1ccc(OC2[C@@H]3C[C@H]2CN(c2nc4c(cc2C)C(=O)NC4)C3)cn1 (single isomer, unassigned) [Example 185A] | 8630
26 | Cc1cc2c(nc1N1CCC(OCC3(C)CCC3)CC1)CNC2=O [Example 184, 3-methyl-2-(4-((1-methylcyclobutyl)meth-oxy)piperidin-1-yl)-6,7-dihydro-5H-pyrrolo[3,4-b]pyridin-5-one] | 246
27 | COc1ccc(O[C@@H]2C[C@H]3CC[C@@H](C2)N3c2nc3c(cc2C)C(=O)NC3)cn1 [Example 99, 2-(exo-3-((6-methoxypyridin-3-yl)oxy)-8-azabicyclo[3.2.1]octan-8-yl)-3-methyl-6,7-dihydro-5H-pyrrolo[3,4-b]pyridin-5-one] | 735
28 | Cc1cc2c(nc1N1CC[C@H](Oc3cccc(C#N)c3)[C@@H](F)C1)CNC2=O [Example 20, 3-(((3S,4S)-3-fluoro-1-(3-methyl-5-oxo-6,7-dihydro-5H-pyrrolo[3,4-b]pyridin-2-yl)piperidin-4-yl)oxy)benzonitrile] | 83
29 | Cc1cc2c(nc1N1CCC(Oc3ccc4c(c3)C[S+]([O-])C4)CC1)CNC2=O (single isomer, unassigned) [Example 168A] | 209
30 | Cc1cc2c(nc1N1CC[C@@H](Oc3ccc4c(cnn4C)c3)[C@@H](F)C1)[C@H](CO)N(C)C2=O [Example 284, (R)-2-((3S,4R)-3-fluoro-4-((1-methyl-1H-indazol-5-yl)oxy)piperidin-1-yl)-7-(hydroxymethyl)-3,6-dimethyl-6,7-dihydro-5H-pyrrolo[3,4-b]pyridin-5-one] | 4330
31 | Cc1cc2c(nc1N1CCC(Oc3ccc(OCC(C)(C)N)nc3)CC1)CNC2=O [Example 169, 2-(4-((6-(2-amino-2-methylpropoxy)pyridin-3-yl)oxy)piperidin-1-yl)-3-methyl-6,7-dihydro-5H-pyrrolo[3,4-b]pyridin-5-one] | 183
32 | CCC1c2nc(N3CCC(Oc4ccc(OC)nc4)CC3)c(C)cc2C(=O)N1CC (stereo not drawn) [Example 233, 6,7-Diethyl-2-(4-((6-methoxypyridin-3-yl)oxy)piperidin-1-yl)-3-methyl-6,7-dihydro-5H-pyrrolo[3,4-b]pyridin-5-one] | 394
33 | COCCn1cc(OC2CCN(c3nc4c(cc3C)C(=O)NC4)CC2)cn1 [Example 312A, 2-(4-((1-(2-methoxyethyl)-1H-pyrazol-4-yl)oxy)piperidin-1-yl)-3-methyl-6,7-dihydro-5H-pyrrolo[3,4-b]pyridin-5-one] | 2510
